Results published in patent US4371537A, “Sulfur-substituted phenoxypyridines having antiviral activity” (The Dow Chemical Company, priority 1981, dated 1983).
Converted amounts (≈) assume the structure as drawn.

Experiments:
[1] = system: rhinovirus type 1A (RV-1A); experiment: Tissue culture testing, rhinovirus type 1A in HeLa cells; type: cell-based; settings: Enterovirus, 48 and 72 hours, NA = not active at the standard test conditions, read-out: RV-1A: lowest concentration of the compound necessary to cause a 50 percent reduction in cytopathic effect
Method in brief: (§1)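 Compound-containing Eagle's medium plus fetal calf serum was applied to monolayered HeLa cells before virus challenge, with untreated and virus-free controls. Activity expressed as minimum effective compound concentration in μg/ml.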

rhinovirus type 2 (RV-2) = experiment: Tissue culture testing, rhinovirus type 2 in HeLa cells; type: cell-based; settings: Enterovirus, 48 and 72 hours, NA = not active at the standard test conditions, read-out: RV-2: lowest concentration of the compound necessary to cause a 50 percent reduction in cytopathic effect
Method in brief: as §1

Coxsackie A21 virus = experiment: Continuous Oral Feeding test in mice challenged IP with Coxsackie A21 virus; type: in vivo; settings: po, 0.06 % in diet, 240 h
Method in brief: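 Activity judged by chi-square on 10-day deaths versus untreated controls, with values above 3.84 counted active at 95% confidence. The IP challenge (0.2 ml/mouse, HeLa-grown virus, 80 to 100% lethal in 8 to 12 g mice) came on day 1, after diet containing 0.06% (weight percent) compound began on day 0.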

Hanks Untyped = experiment: Inhibition of cytopathic effect in WI-38 cell culture tubes, Hanks Untyped; type: cell-based, rhinovirus; settings: Enterovirus, WI-38 cells, read-out: Inhibition grade, Hanks Untyped; for inhibition at 25 µg/mL: 25 μg/ml
Protocol: (§2) The test compound was dissolved in an appropriate solvent (generally dimethyl sulfoxide) and incubated at 56° C. for at least 15 minutes and this solution was then used to prepare various test solutions having the desired concentration of test compound in preheated WI maintenance medium (49% Eagles, 49% medium 199, 2% fetal calf serum and antibiotics).
(§3) Triplicate cell culture tubes (WI-38 human embryonic lung cell culture tubes) were fed with 1 ml of medium containing the compound at specified concentrations and inoculated with 3-300 TCID50 (3-300 times the tissue culture infective dose 50, i.e., the dose required to infect 50% of the cell cultures tested). Simultaneous viral titrations were performed. The tissue cultures were supplemented with fresh medium when necessary (around 3-4 days) until viral titrations were completed.
(§4) The cell culture tubes were examined dialy for cytopathic effect. […] Comparisons were made at that time with the percentage of cell sheet destruction in tubes containing virus compound mixtures. Observed differences of 75% or more were graded "+", 74-50% as "±", and less than 50% as "-" inhibition.

Rhinovirus Type 4 = experiment: Inhibition of cytopathic effect in WI-38 cell culture tubes, rhinovirus type 4; type: cell-based; settings: Enterovirus, WI-38 cells, read-out: Inhibition grade, Rhinovirus Type 4; for inhibition at 25 µg/mL: 25 μg/ml
Protocol: as §2, §3, §4

Rhinovirus Type 10 = experiment: Inhibition of cytopathic effect in WI-38 cell culture tubes, rhinovirus type 10; type: cell-based; settings: Enterovirus, WI-38 cells, read-out: Inhibition grade, Rhinovirus Type 10; for inhibition at 25 µg/mL: 25 μg/ml
Protocol: as §2, §3, §4

Rhinovirus Type 13 = experiment: Inhibition of cytopathic effect in WI-38 cell culture tubes, rhinovirus type 13; type: cell-based; settings: Enterovirus, WI-38 cells, read-out: Inhibition grade, Rhinovirus Type 13; for inhibition at 25 µg/mL: 25 μg/ml
Protocol: as §2, §3, §4

Rhinovirus Type 60 = experiment: Inhibition of cytopathic effect in WI-38 cell culture tubes, rhinovirus type 60; type: cell-based; settings: Enterovirus, WI-38 cells, read-out: Inhibition grade, Rhinovirus Type 60; for inhibition at 25 µg/mL: 25 μg/ml
Protocol: as §2, §3, §4

Rhinovirus Type 74 = experiment: Inhibition of cytopathic effect in WI-38 cell culture tubes, rhinovirus type 74; type: cell-based; settings: Enterovirus, WI-38 cells, read-out: Inhibition grade, Rhinovirus Type 74; for inhibition at 25 µg/mL: 25 μg/ml
Protocol: as §2, §3, §4

rhinovirus type 5 (RV-5) = experiment: Tissue culture testing, rhinovirus type 5 in HeLa cells; type: cell-based; settings: Enterovirus, 48 and 72 hours, NA = not active at the standard test conditions, read-out: RV-5: lowest concentration of the compound necessary to cause a 50 percent reduction in cytopathic effect
Protocol: Monolayered HeLa cells in 16 millimeter (mm) tissue culture dishes were treated with 1 ml of culture medium (Eagles medium supplemented with fetal calf serum) containing subject compound at an appropriate concentration or containing no compound at all. Culture media such as those described herein are more fully described in standard texts, as for example, Kuchler's Biochemical Methods in Cell Culture and Virology, Dowden, Hutchinson and Ross, Inc., Stroudsberg, PA (1977). Following treatment, cells were challenged with 0.05 ml of rhinovirus type 1A (RV-1A), rhinovirus type 2 (RV-2) or Coxsackie A21 virus (Cox A21) in culture medium. Some of the compounds were also tested against rhinovirus type 5 (RV-5), rhinovirus type 8 (RV-8) or rhinovirus type 64 (RV-64). Cell controls received no viruses.
^2 Lowest concentration of the compound (μg/ml) necessary to cause

[2] = system: 20 different rhinoviruses; experiment: Summary of WI-38 tissue culture testing against 20 rhinoviruses; type: cell-based; settings: 3.0 μg/ml
Protocol: as §2, §3, §4

Structure (SMILES)	EC50 [1] [µg/mL]	EC50 (rhinovirus type 2 (RV-2)) [µg/mL]	Continuous Oral Feeding X^2 (chi-square, deaths vs control) (Coxsackie A21 virus)	inhibition at 25 µg/mL (Hanks Untyped) [%]	inhibition at 25 µg/mL (Rhinovirus Type 4) [%]	inhibition at 25 µg/mL (Rhinovirus Type 10) [%]	inhibition at 25 µg/mL (Rhinovirus Type 13) [%]	inhibition at 25 µg/mL (Rhinovirus Type 60) [%]	inhibition at 25 µg/mL (Rhinovirus Type 74) [%]	EC50 (rhinovirus type 5 (RV-5)) [µg/mL]	other results
CCS(=O)(=O)c1ccc(Oc2ccc(Cl)c(Cl)c2)nc1 [Example 47, 2-(3,4-dichlorophenoxy)-5-(ethylsulfonyl)pyridine]	0.312 (≈ 0.941 µM)	0.625 (≈ 1.88 µM)	1.10	≥ 75	≥ 75	≥ 75	< 50	≥ 75	≥ 75	–	–
CCS(=O)(=O)c1ccc(Oc2ccc(Cl)cc2)nc1 [Example 42, 2-(4-chlorophenoxy)-5-(ethylsulfonyl)pyridine]	6.25 (≈ 21 µM)	3.12 (≈ 10.5 µM)	17.64	–	–	–	–	–	–	–	inhibition at 12.5 µg/mL (Hanks Untyped; 12.5 μg/ml): ≥ 75%; inhibition at 12.5 µg/mL (Rhinovirus Type 4; 12.5 μg/ml): ≥ 75%; inhibition at 12.5 µg/mL (Rhinovirus Type 10; 12.5 μg/ml): 50 to 74%; inhibition at 12.5 µg/mL (Rhinovirus Type 13; 12.5 μg/ml): < 50%; inhibition at 12.5 µg/mL (Rhinovirus Type 60; 12.5 μg/ml): ≥ 75%; inhibition at 12.5 µg/mL (Rhinovirus Type 74; 12.5 μg/ml): ≥ 75%
CS(=O)(=O)c1ccc(Oc2ccc(C(=O)c3ccccc3)cc2)nc1 [Example 31, (4-((5-(methylsulfonyl)-2-pyridinyl)oxy)phenyl)phenylmethanone]	12.5 (≈ 35.4 µM)	5 (≈ 14.1 µM)	24.397	≥ 75	≥ 75	≥ 75	< 50	≥ 75	≥ 75	6.25 (≈ 17.7 µM)	–
CCS(=O)(=O)c1ccc(Oc2ccc(C(=O)c3ccccc3)cc2)nc1 [Example 43, (4-((5-(ethylsulfonyl)-2-pyridinyl)oxy)phenyl)phenylmethanone]	≤ 3.12	6.25 (≈ 17 µM)	20.44	–	–	–	–	–	–	12.5 (≈ 34 µM)	inhibition at 3 µg/mL (Hanks Untyped; 3.0 μg/ml): 50 to 74%; inhibition at 3 µg/mL (Rhinovirus Type 4; 3.0 μg/ml): < 50%; inhibition at 3 µg/mL (Rhinovirus Type 10; 3.0 μg/ml): < 50%; inhibition at 3 µg/mL (Rhinovirus Type 13; 3.0 μg/ml): < 50%; inhibition at 3 µg/mL (Rhinovirus Type 60; 3.0 μg/ml): 50 to 74%; inhibition at 3 µg/mL (Rhinovirus Type 74; 3.0 μg/ml): 50 to 74%; inhibition of the multiplication of the majority of the 20 test rhinoviruses [2]: failed to inhibit the multiplication of the majority of the 20 test rhinoviruses
